ChEMBL document CHEMBL1201862, “PubChem BioAssay data set” (2004)
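The compound was tested at five concentrations on cells cultured in 96-well plates, with a 48-hour exposure period. Here, GI50 denotes the concentration required for 50% inhibition of growth.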 Active and inactive are the calls of the source. No stated cut-off is given here; in the data, active = GI50 up to about 1.1 µM and inactive = higher.

Legend:
Assay in all cases: growth of human tumour cells (NCI), 48 h
KM12 = system: KM12
TK-10 = system: TK-10
M14 = system: M14
HL-60 = system: HL-60
U-251 = system: U-251
MDA-N = system: MDA-N
PC-3 = system: PC-3
SF-295 = system: SF-295
OVCAR-4 = system: OVCAR-4
HCT-15 = system: HCT-15
SK-MEL-28 = system: SK-MEL-28
K562 = system: K562
NCI-H226 = system: NCI-H226
NCI/ADR-RES = system: NCI/ADR-RES
OVCAR-8 = system: OVCAR-8
UACC-257 = system: UACC-257
OVCAR-5 = system: OVCAR-5
MDA-MB-231 = system: MDA-MB-231
HOP-62 = system: HOP-62
SF-268 = system: SF-268

## O=C(O)CC(Cc1ccc2c(c1)OCO2)C(=O)O (stereo not given)
KM12
  GI50: > 100 µM (inactive)
TK-10
  GI50: > 100 µM (inactive)
M14
  GI50: > 100 µM (inactive)
HL-60
  GI50: > 100 µM (inactive)
U-251
  GI50: > 100 µM (inactive)
MDA-N
  GI50: > 100 µM (inactive)
PC-3
  GI50: > 100 µM (inactive)
SF-295
  GI50: > 100 µM (inactive)
OVCAR-4
  GI50: > 100 µM (inactive)
HCT-15
  GI50: > 100 µM
SK-MEL-28
  GI50: > 100 µM (inactive)
K562
  GI50: > 100 µM (inactive)
NCI-H226
  GI50: > 100 µM (inactive)
NCI/ADR-RES
  GI50: > 100 µM (inactive)
OVCAR-8
  GI50: > 100 µM (inactive)
UACC-257
  GI50: > 100 µM (inactive)
OVCAR-5
  GI50: > 100 µM (inactive)
MDA-MB-231
  GI50: > 100 µM (inactive)
HOP-62
  GI50: > 100 µM (inactive)
SF-268
  GI50: > 100 µM (inactive)

## c1ccc(CN[C@]23C4C5CC6C7C5C2C7[C@@](NCc2ccccc2)(C64)N3Cc2ccccc2)cc1 (stereo not given in full)
KM12
  GI50: > 100 µM (inactive)
TK-10
  GI50: > 100 µM (inactive)
M14
  GI50: > 100 µM (inactive)
HL-60
  GI50: > 100 µM (inactive)
U-251
  GI50: > 100 µM (inactive)
MDA-N
  GI50: > 100 µM (inactive)
PC-3
  GI50: > 100 µM (inactive)
SF-295
  GI50: > 100 µM (inactive)
OVCAR-4
  GI50: > 100 µM (inactive)
HCT-15
  GI50: > 100 µM
SK-MEL-28
  GI50: > 100 µM (inactive)
K562
  GI50: > 100 µM (inactive)
NCI-H226
  GI50: > 100 µM (inactive)
NCI/ADR-RES
  GI50: > 100 µM (inactive)
OVCAR-8
  GI50: > 100 µM (inactive)
UACC-257
  GI50: > 100 µM (inactive)
OVCAR-5
  GI50: > 100 µM (inactive)
MDA-MB-231
  GI50: > 100 µM (inactive)
HOP-62
  GI50: > 100 µM (inactive)
SF-268
  GI50: > 100 µM (inactive)

## O=S(=O)(O)SCCNCCCCCC1CCCCC1
KM12
  GI50: 2.79 µM (inactive)
TK-10
  GI50: 9.38 µM (inactive)
M14
  GI50: 4.95 µM (inactive)
HL-60
  GI50: 7.29 µM (inactive)
U-251
  GI50: 5.46 µM (inactive)
MDA-N
  GI50: 12.8 µM (inactive)
PC-3
  GI50: 8.02 µM (inactive)
SF-295
  GI50: 5.86 µM (inactive)
OVCAR-4
  GI50: 17.2 µM (inactive)
HCT-15
  GI50: 8.77 µM
SK-MEL-28
  GI50: 4.26 µM (inactive)
K562
  GI50: 0.863 µM (active)
NCI-H226
  GI50: 11.5 µM (inactive)
NCI/ADR-RES
  GI50: 16.7 µM (inactive)
OVCAR-8
  GI50: 10 µM (inactive)
UACC-257
  GI50: 6.61 µM (inactive)
OVCAR-5
  GI50: 9.64 µM (inactive)
MDA-MB-231
  GI50: 14.8 µM (inactive)
HOP-62
  GI50: 7.43 µM (inactive)
SF-268
  GI50: 3.05 µM (inactive)

## CCOC(=O)C(NC(=O)c1ccccc1)(Nc1ccc(S(=O)(=O)Nc2cc(C)on2)cc1)C(F)(F)F (stereo not given)
KM12
  GI50: > 100 µM (inactive)
TK-10
  GI50: 56.1 µM (inactive)
M14
  GI50: > 100 µM (inactive)
HL-60
  GI50: > 100 µM (inactive)
U-251
  GI50: > 100 µM (inactive)
MDA-N
  GI50: > 100 µM (inactive)
PC-3
  GI50: > 100 µM (inactive)
SF-295
  GI50: > 100 µM (inactive)
OVCAR-4
  GI50: > 10 µM (inactive)
HCT-15
  GI50: > 100 µM
SK-MEL-28
  GI50: > 100 µM (inactive)
K562
  GI50: > 100 µM (inactive)
NCI-H226
  GI50: > 100 µM (inactive)
NCI/ADR-RES
  GI50: > 100 µM (inactive)
OVCAR-8
  GI50: > 100 µM (inactive)
UACC-257
  GI50: > 10 µM (inactive)
OVCAR-5
  GI50: > 100 µM (inactive)
MDA-MB-231
  GI50: > 100 µM (inactive)
HOP-62
  GI50: > 100 µM (inactive)
SF-268
  GI50: > 100 µM (inactive)
